Experimental data: patent US10421761B2, “Compounds for kinase modulation, and indications therefor” (Plexxikon Inc., priority 2013, dated 2019)
Read-outs that look alike come from different tables or passages of the source.

Columns and labels:
BRAF V600E = molecular target: T1, BRAF V600E (Homo sapiens, UniProt P15056, V600E); test: BRAF V600E biochemical kinase activity assay (AlphaScreen, biotin-MEK1 substrate); conditions: BRAF V600E biochemical inhibitory activity
T1 construct: purchased Upstate Biotechnology
T1 sequence (P15056 whole entry V600E): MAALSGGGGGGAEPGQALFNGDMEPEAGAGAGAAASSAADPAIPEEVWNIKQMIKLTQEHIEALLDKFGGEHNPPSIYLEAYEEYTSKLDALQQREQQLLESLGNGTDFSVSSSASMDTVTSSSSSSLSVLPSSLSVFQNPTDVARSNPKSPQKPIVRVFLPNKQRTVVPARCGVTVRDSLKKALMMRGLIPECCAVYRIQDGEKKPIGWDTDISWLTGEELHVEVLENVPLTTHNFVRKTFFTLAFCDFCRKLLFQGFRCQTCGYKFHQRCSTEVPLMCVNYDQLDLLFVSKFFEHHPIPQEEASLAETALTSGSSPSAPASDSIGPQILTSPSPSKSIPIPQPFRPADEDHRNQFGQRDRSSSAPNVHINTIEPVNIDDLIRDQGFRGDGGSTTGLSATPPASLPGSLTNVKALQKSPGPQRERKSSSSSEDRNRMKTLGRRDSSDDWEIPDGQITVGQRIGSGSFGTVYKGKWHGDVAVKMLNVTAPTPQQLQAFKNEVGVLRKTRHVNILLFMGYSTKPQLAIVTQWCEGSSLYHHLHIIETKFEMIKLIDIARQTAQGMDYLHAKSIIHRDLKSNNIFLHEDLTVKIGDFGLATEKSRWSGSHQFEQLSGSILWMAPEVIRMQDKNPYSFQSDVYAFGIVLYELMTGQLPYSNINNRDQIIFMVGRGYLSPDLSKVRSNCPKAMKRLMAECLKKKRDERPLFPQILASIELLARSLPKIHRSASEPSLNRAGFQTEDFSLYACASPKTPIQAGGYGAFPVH

B9 (HRAS Q61L) cell line = test: B9 P-ERK cell activation assay (AlphaScreen); type: cell-based, mouse; conditions: Mus musculus, P-ERK cell activation, B9, read-out: Cell activity (EC50 μM) B9_pERK
Summary of the method: (§1)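 Phospho-ERK1/2 (Thr202/Tyr204) in lysates quantified via AlphaScreen bead proximity, after one-hour, 37° C. exposure of cells to eight compound concentrations. Lines: IPC-298 human melanoma with activated NRAS; B9 mouse squamous carcinoma with activated HRAS.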

[1] = tested on: IPC-298 (NRAS Q61L) cell line; test: IPC-298 P-ERK cell activation assay (AlphaScreen); type: cell-based, human; conditions: Homo sapiens, P-ERK cell activation, IPC-298, read-out: Cell activity (EC50 μM) IPC-298_P-ERK
Summary of the method: as §1

[2] = tested on: A375 (BRAF V600E) cell line; test: A375 P-ERK inhibition assay (AlphaScreen); type: cell-based, human; conditions: Homo sapiens, A-375; A375_P-ERK
Summary of the method: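 Phospho-ERK1/2 (Thr202/Tyr204) detected in lysates by AlphaScreen proximity signal, pairing a total-ERK antibody with a phospho-specific antibody. Before lysis, A375 cells received compound as an 8-point titration for one hour at 37° C.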

SMILES | IC50 (BRAF V600E) [µM] | EC50 (B9 (HRAS Q61L) cell line; numeric bounds) [µM] | EC50 ([1]; class symbols) [µM] | IC50 [2] [µM] | EC50 ([1]; numeric bounds) [µM] | EC50 (B9 (HRAS Q61L) cell line; class symbols) [µM]
COC(=O)N[C@@H](C)CNc1nccc(-c2nn(C(C)C)cc2-c2cc(Cl)cc(NS(=O)(=O)N3CCC3)c2F)n1 [P-2163, methyl N-[(1S)-2-[[4-[4-[3-(azetidin-1-ylsulfonylamino)-5-chloro-2-fluoro-phenyl]-1-isopropyl-pyrazol-3-yl]pyrimidin-2-yl]amino]-1-methyl-ethyl]carbamate] | 1 to 10 | > 10 | – | 1 to 10 | > 10 | –
CNc1ncnc2[nH]cc(C(=O)c3cccc(NS(=O)(=O)N4CCCC4)c3F)c12 [P-2071, N-[2-fluoro-3-[4-(methylamino)-7H-pyrrolo[2,3-d]pyrimidine-5-carbonyl]phenyl]pyrrolidine-1-sulfonamide] | 0.0001 to 1 | > 10 | – | 0.0001 to 1 | > 10 | –
CC(C)S(=O)(=O)Nc1ccc(F)c(C(=O)c2c[nH]c3nccc(C#N)c23)c1F [P-2017, N-[3-(4-cyano-1H-pyrrolo[2,3-b]pyridine-3-carbonyl)-2,4-difluoro-phenyl]propane-2-sulfonamide] | 0.0001 to 1 | > 10 | – | 0.0001 to 1 | > 10 | –
CCN(CC)S(=O)(=O)Nc1ccc(F)c(C(=O)c2c[nH]c3nccc(OC)c23)c1F [Compound P-2004, 3-[3-(diethylsulfamoylamino)-2,6-difluoro-benzoyl]-4-methoxy-1H-pyrrolo[2,3-b]pyridine] | 1 to 10 | > 10 | – | > 10 | > 10 | –
CCCN(C)S(=O)(=O)Nc1cccc(C(=O)c2c[nH]c3ncnc(C4CC4)c23)c1F [P-2087, 4-cyclopropyl-5-[2-fluoro-3-[[methyl(propyl)sulfamoyl]amino]benzoyl]-7H-pyrrolo[2,3-d]pyrimidine] | 0.0001 to 1 | > 10 | – | 1 to 10 | > 10 | –
CC(C)Nc1ncnc2[nH]cc(C(=O)c3c(F)ccc(NS(=O)(=O)C(C)C)c3F)c12 [P-2037, N-[2,4-difluoro-3-[4-(isopropylamino)-7H-pyrrolo[2,3-d]pyrimidine-5-carbonyl]phenyl]propane-2-sulfonamide] | 0.0001 to 1 | > 10 | – | 0.0001 to 1 | > 10 | –
CCN(C)S(=O)(=O)Nc1cccc(C(=O)c2c[nH]c3ncnc(C4CC4)c23)c1F [P-2091, 4-cyclopropyl-5-[3-[[ethyl(methyl)sulfamoyl]amino]-2-fluoro-benzoyl]-7H-pyrrolo[2,3-d]pyrimidine] | 0.0001 to 1 | > 10 | – | 0.0001 to 1 | > 10 | –
O=C(c1cccc(NS(=O)(=O)N2CCCC2)c1F)c1c[nH]c2ncnc(NC3(C(=O)O)CC3)c12 [P-2097, 1-[[5-[2-fluoro-3-(pyrrolidin-1-ylsulfonylamino)benzoyl]-7H-pyrrolo[2,3-d]pyrimidin-4-yl]amino]cyclopropanecarboxylic acid] | 1 to 10 | > 10 | – | > 10 | > 10 | –
CC(C)(C)c1nc(-c2cccc(NS(=O)(=O)N3CC[C@H](F)C3)c2F)c(-c2ccnc(N)n2)s1 [P-2130, (3S)-N-[3-[5-(2-aminopyrimidin-4-yl)-2-tert-butyl-thiazol-4-yl]-2-fluoro-phenyl]-3-fluoro-pyrrolidine-1-sulfonamide] | 0.0001 to 1 | – | 0.0001 to 1 | 0.0001 to 1 | – | 0.0001 to 1
CC(C)Nc1ncnc2[nH]cc(C(=O)c3c(F)ccc(NS(=O)(=O)C4CCC4)c3F)c12 [P-2043, N-[2,4-difluoro-3-[4-(isopropylamino)-7H-pyrrolo[2,3-d]pyrimidine-5-carbonyl]phenyl]cyclobutanesulfonamide] | 1 to 10 | > 10 | – | 1 to 10 | > 10 | –
C[C@@H](Nc1ncnc2[nH]cc(C(=O)c3cccc(NS(=O)(=O)N4CCCC4)c3F)c12)C1CC1 [P-2094, N-[3-[4-[[(1R)-1-cyclopropylethyl]amino]-7H-pyrrolo[2,3-d]pyrimidine-5-carbonyl]-2-fluoro-phenyl]pyrrolidine-1-sulfonamide] | 0.0001 to 1 | > 10 | – | 0.0001 to 1 | > 10 | –
CC(=O)Nc1ccc(NC(=O)c2c(F)ccc(NS(=O)(=O)C3CCCC3)c2F)cn1 [P-2035, N-(6-acetamido-3-pyridyl)-3-(cyclopentylsulfonylamino)-2,6-difluoro-benzamide] | 0.0001 to 1 | > 10 | – | 1 to 10 | > 10 | –
CCN(C)S(=O)(=O)Nc1ccc(F)c(C(=O)c2c[nH]c3ncnc(NCCCOC)c23)c1F [P-2116, 5-[3-[[ethyl(methyl)sulfamoyl]amino]-2,6-difluoro-benzoyl]-4-(3-methoxypropylamino)-7H-pyrrolo[2,3-d]pyrimidine] | 0.0001 to 1 | > 10 | – | 0.0001 to 1 | > 10 | –
CC(C)Nc1ncnc2[nH]cc(C(=O)c3c(F)ccc(NS(=O)(=O)C4CCCCC4)c3F)c12 [P-2039, N-[2,4-difluoro-3-[4-(isopropylamino)-7H-pyrrolo[2,3-d]pyrimidine-5-carbonyl]phenyl]cyclohexanesulfonamide] | 0.0001 to 1 | > 10 | – | 0.0001 to 1 | > 10 | –
CCN(C)S(=O)(=O)Nc1cccc(C(=O)c2c[nH]c3ncnc(NC4CCOCC4)c23)c1F [P-2075, 5-[3-[[ethyl(methyl)sulfamoyl]amino]-2-fluoro-benzoyl]-4-(tetrahydropyran-4-ylamino)-7H-pyrrolo[2,3-d]pyrimidine] | 0.0001 to 1 | > 10 | – | 0.0001 to 1 | > 10 | –

Other lines, results leading:

IC50 (BRAF V600E) [µM] | EC50 (B9 (HRAS Q61L) cell line; numeric bounds) [µM] | EC50 ([1]; class symbols) [µM] | IC50 [2] [µM] | EC50 ([1]; numeric bounds) [µM] | EC50 (B9 (HRAS Q61L) cell line; class symbols) [µM] | SMILES
0.0001 to 1 | > 10 | 0.0001 to 1 | 0.0001 to 1 | – | – | COC(=O)N[C@@H](C)CNc1nccc(-c2cn(C(C)C)nc2-c2cc(Cl)cc(NS(=O)(=O)N3CCCCC3)c2F)n1 [P-2181, methyl N-[(1S)-2-[[4-[3-[5-chloro-2-fluoro-3-(1-piperidylsulfonylamino)phenyl]-1-isopropyl-pyrazol-4-yl]pyrimidin-2-yl]amino]-1-methyl-ethyl]carbamate]
0.0001 to 1 | > 10 | – | 0.0001 to 1 | > 10 | – | COc1ccnc2[nH]cc(C(=O)c3c(F)ccc(NS(=O)(=O)N4CCCC4)c3F)c12 [Compound P-2003, N-[2,4-difluoro-3-(4-methoxy-1H-pyrrolo[2,3-b]pyridine-3-carbonyl)phenyl]pyrrolidine-1-sulfonamide]
0.0001 to 1 | > 10 | – | 0.0001 to 1 | > 10 | – | CN(C)S(=O)(=O)Nc1ccc(F)c(C(=O)c2c[nH]c3nccc(Cl)c23)c1F [Compound P-2007, 4-chloro-3-[3-(dimethylsulfamoylamino)-2,6-difluoro-benzoyl]-1H-pyrrolo[2,3-b]pyridine]
0.0001 to 1 | > 10 | – | 0.0001 to 1 | > 10 | – | CCN(C)S(=O)(=O)Nc1cccc(C(=O)c2c[nH]c3ncnc(NCC(C)(C)O)c23)c1F [P-2069, 5-[3-[[ethyl(methyl)sulfamoyl]amino]-2-fluoro-benzoyl]-4-[(2-hydroxy-2-methyl-propyl)amino]-7H-pyrrolo[2,3-d]pyrimidine]
0.0001 to 1 | > 10 | – | 0.0001 to 1 | > 10 | – | CC(C)(O)CCNc1ncnc2[nH]cc(C(=O)c3cccc(NS(=O)(=O)N4CCCC4)c3F)c12 [P-2108, N-[2-fluoro-3-[4-[(3-hydroxy-3-methyl-butyl)amino]-7H-pyrrolo[2,3-d]pyrimidine-5-carbonyl]phenyl]pyrrolidine-1-sulfonamide]
0.0001 to 1 | > 10 | – | 0.0001 to 1 | > 10 | – | CC(C)Nc1ncnc2[nH]cc(C(=O)c3c(F)ccc(NS(=O)(=O)C4CCCC4)c3F)c12 [P-2040, N-[2,4-difluoro-3-[4-(isopropylamino)-7H-pyrrolo[2,3-d]pyrimidine-5-carbonyl]phenyl]cyclopentanesulfonamide]
0.0001 to 1 | > 10 | – | < 1 | > 10 | – | O=C(c1cc(Cl)cc(NS(=O)(=O)N2CCCC2)c1F)c1c[nH]c2ncc(-c3cnc(C4CC4)nc3)cc12 [P-2180, N-(5-chloro-3-(5-(2-cyclopropylpyrimidin-5-yl)-1H-pyrrolo[2,3-b]pyridine-3-carbonyl)-2-fluorophenyl)pyrrolidine-1-sulfonamide]
0.0001 to 1 | > 10 | – | 0.0001 to 1 | > 10 | – | CCN(C)S(=O)(=O)Nc1cccc(C(=O)c2c[nH]c3ncnc(NCCCOC)c23)c1F [P-2115, 5-[3-[[ethyl(methyl)sulfamoyl]amino]-2-fluoro-benzoyl]-4-(3-methoxypropylamino)-7H-pyrrolo[2,3-d]pyrimidine]
0.0001 to 1 | > 10 | – | 0.0001 to 1 | > 10 | – | CCN(C)S(=O)(=O)Nc1ccc(F)c(C(=O)c2c[nH]c3ncnc(NCC4CC4)c23)c1F [P-2061, 4-(cyclopropylmethylamino)-5-[3-[[ethyl(methyl)sulfamoyl]amino]-2,6-difluoro-benzoyl]-7H-pyrrolo[2,3-d]pyrimidine]
